For orientation: IC50 means the concentration that inhibits the measured activity by half. High values mean a need for much substance, low ones inhibition by little substance.

For assay [1], the target named is T1, acyl-CoA:cholesterol acyltransferase (ACAT) (Oryctolagus cuniculus, UniProt G1SFD9).
T1 sequence (G1SFD9 1-524): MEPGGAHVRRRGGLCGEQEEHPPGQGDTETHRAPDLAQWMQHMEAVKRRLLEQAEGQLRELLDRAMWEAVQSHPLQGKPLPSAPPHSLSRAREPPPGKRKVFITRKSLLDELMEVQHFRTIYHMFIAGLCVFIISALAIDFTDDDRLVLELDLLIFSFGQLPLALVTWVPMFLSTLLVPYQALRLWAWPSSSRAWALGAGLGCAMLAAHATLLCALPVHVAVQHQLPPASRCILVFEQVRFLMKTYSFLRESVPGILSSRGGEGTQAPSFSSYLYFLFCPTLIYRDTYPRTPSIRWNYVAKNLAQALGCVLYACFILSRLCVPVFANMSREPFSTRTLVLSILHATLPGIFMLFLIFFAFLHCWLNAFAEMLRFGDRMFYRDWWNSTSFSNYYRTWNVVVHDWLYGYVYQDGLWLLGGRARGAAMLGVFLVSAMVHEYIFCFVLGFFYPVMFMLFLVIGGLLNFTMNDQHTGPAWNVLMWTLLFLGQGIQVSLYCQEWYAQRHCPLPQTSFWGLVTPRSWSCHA
Nature of the assay: In vitro ACAT inhibition: radiolabeled cholesterol oleate formed from radiolabeled oleic acid in rabbit intestinal microsomes. The format is biochemical. The note with it: concentration required to inhibit 50% activity of the enzyme.
Procedure: The ability of representative compounds of the present invention to inhibit ACAT was measured using an in vitro test more fully described by Field, F. J. and Salone, R. G., in Biochemica et Biophysica 712:557-570 (1982). The test assesses the ability of a test compound to inhibit the acylation of cholesterol by oleic acid by measuring the amount of radiolabeled cholesterol oleate formed from radiolabeled oleic acid in a tissue preparation containing rabbit intestinal microsomes.

Assay [2] in a line: In vivo screen designated APCC: blood cholesterol in rats on chow supplemented with peanut oil, cholesterol and cholic acid. The note with it: cholesterol in blood, male Sprague-Dawley rats, oral, 30 milligrams per kilogram, single dose 4 PM, blood samples 8 AM next day, vs vehicle control (CMC/Tween); for change in vivo at 30 mg/kg: Rattus norvegicus, 16 h, read-out: % Change (mg/dl). The text has this:
In one in vivo screen designated APCC, male Sprague-Dawley rats (200 to 225 g) were randomly divided into treatment groups and dosed orally at 4 PM with either vehicle (CMC/Tween) or suspensions of test compounds in vehicle. The control group received vehicle alone. Immediately after dosing, all animals received ad libitum a chow diet supplemented with peanut oil (5.5%), cholesterol (1.5%) and cholic acid (0.5%). The next day the animals were sacrificed at 8 AM to obtain blood samples for cholesterol analysis using standard procedures. Statistical differences between mean cholesterol values for the same vehicle were determined using analysis of variance followed by Fisher's least significant test. The compounds were administered at 30 milligrams per kilogram of body weight.

As to `CCCCCCCCCCCc1nc(NC(=O)Nc2c(C(C)C)cccc2C(C)C)n(C(C)=O)n1` [Example 1, N-[2,6-bis(1-methylethyl)phenyl]-N'-(2-acetyl-5-undecyl-2H-1,2,4-triazol-3-yl)urea], the half-maximal inhibitory concentration (IC50) in assay [1] was greater than 5000 nM. The change in vivo at 30 mg/kg in assay [2] is -38%.

For `CCCCCCCCCCCc1nc(NC(=O)Nc2c(C(C)C)cccc2C(C)C)n[nH]1` [Example 2, N-[2,6-bis(1-methylethyl)phenyl]-N'-(5-undecyl-1H-1,2,4-triazol-3-yl)urea], the half-maximal inhibitory concentration (IC50) in assay [1] is greater than 5000 nM. Further, the change in vivo at 30 mg/kg in assay [2] was -31%. Regarding `CCCCCCCCCCCCc1nc(NC(=O)Nc2c(C(C)C)cccc2C(C)C)n[nH]1` [Example 4, N-[2,6-bis(1-methylethyl)phenyl]-N'(5-dodecyl-1H-1,2,4-triazol-3-yl)urea], the change in vivo at 30 mg/kg in assay [2] amounted to 12%.

The compound `CCCCCCCCCCCCCCc1nc(NC(=O)Nc2c(C(C)C)cccc2C(C)C)n[nH]1` [Example 6] gave a 50% inhibitory concentration (IC50) in assay [1] greater than 5000 nM. Moreover, the change in vivo at 30 mg/kg in assay [2] is -1%. `CCCCCCCCCCCn1ncnc1NC(=O)Nc1c(C(C)C)cccc1C(C)C` [Example 7, N-[2,6-bis(1-methylethyl)phenyl]-N'-(2-undecyl-2H-1,2,4-triazol-3-yl)urea]: in assay [1], the midpoint of inhibition, the IC50, lay at 140 nM. In addition, in assay [2], the change in vivo at 30 mg/kg was -38%.

Consider `CCCCCCCCCCCn1cnc(NC(=O)Nc2c(C(C)C)cccc2C(C)C)n1` [Example 8, N-[2,6-bis(1-methylethyl)phenyl]-N-(1-undecyl-1,2,4-triazol-3-yl)urea], for which the half-maximal inhibitory concentration (IC50) in assay [1] was found to be 110 nM. Moreover, the change in vivo at 30 mg/kg in assay [2] is -39%.

In assay [1], `CCCCCCCCCCCn1cnnc1NC(=O)Nc1c(C(C)C)cccc1C(C)C` [Example 9, N-[2,6-bis(1-methylethyl)phenyl]-N'(4-undecyl-1,2,4-triazol-3-yl)urea] had an IC50 of 670 nM. In addition, the change in vivo at 30 mg/kg in assay [2] was -21%. For `CCCCCCCCCCCCn1cnc(NC(=O)Nc2c(C(C)C)cccc2C(C)C)n1` [Example 11, N-[2,6-bis(1-methylethyl)phenyl]-N'-(1-dodecyl-1H-1,2,4-triazol-3-yl)urea], in that order: 1500 nM and -30%. In the case of `CCCCCCCCCCCCn1cnnc1NC(=O)Nc1c(C(C)C)cccc1C(C)C` [Example 12, N-[2,6-bis(1-methylethyl)phenyl]-N'-(4-dodecyl-4H-1,2,4-triazol-3-yl)urea], the change in vivo at 30 mg/kg in assay [2] is -28%. Take `CCCCCCCCCCCCSc1nnc(NC(=O)Nc2c(C(C)C)cccc2C(C)C)n1C(C)=O` [Example 13, 4-acetyl-N-[[[2,6-bis(1-methylethyl)phenyl]amino]carbonyl]-5-(dodecylthio)-4H-1,2,4-triazol-3-amine]: the IC50 in assay [1] was 600 nM. Further, the change in vivo at 30 mg/kg in assay [2] is -41%. `CCCCCCCCCCCCCSc1nnc(NC(=O)Nc2c(C(C)C)cccc2C(C)C)n1C(C)=O` [Example 14, 4-Acetyl-N-[[[2,6-bis(1-methylethyl)phenyl]amino]carbonyl]-5-(tridecylthio)-4H-1,2,4-triazol-3-amine]: the change in vivo at 30 mg/kg in assay [2] was -21%. The same measure, in the same setting: as for `CCCCCCCCCCCCCSc1nnc(NC(=O)Nc2c(C(C)C)cccc2C(C)C)[nH]1` [Example 15, N-[[[2,6-Bis(1-methylethyl)phenyl]amino]carbonyl]-5-(tridecylthio)-4H-1,2,4-triazol-3-amine], the figure is 12%; as for `CCCCCCCCCCCCC[S+]([O-])c1nc(NC(=O)Nc2c(C(C)C)cccc2C(C)C)n[nH]1` (stereo not shown) [Example 16, N-[2,6-Bis(1-methylethyl)phenyl]-N'-[5-(tridecylsulfinyl)-1H-1,2,4-triazol-3-yl]urea], -6%; as for `CCCCCCCCCCCCCS(=O)(=O)c1nnc(NC(=O)Nc2c(C(C)C)cccc2C(C)C)[nH]1` [Example 17], -11%.

For `CCCCCCCCCCCc1nnc(NC(=O)Nc2c(C(C)C)cccc2C(C)C)s1` [Example 18, N-[2,6-bis(1-methylethyl)phenyl]-N'-(5-undecyl-1,3,4-thiadiazol-2-yl)urea], in assay [1], the IC50 turned out to be 39 nM. Moreover, the change in vivo at 30 mg/kg in assay [2] is -44%. The compound `Cc1nnc(NC(=O)Nc2c(C(C)C)cccc2C(C)C)s1` [Example 19, N-[2,6-bis(1-methylethyl)phenyl]-N'-(5-methyl-1,3,4-thiadiazol-2-yl)urea] came in with an IC50 in assay [1] greater than 5000 nM. The compound `CCCCCCCc1nnc(NC(=O)Nc2c(C(C)C)cccc2C(C)C)s1` [Example 20, N-[2,6-bis(1-methylethyl)phenyl]-N'-(5-heptyl-1,3,4-thiadiazol-2-yl)urea] returned an IC50 in assay [1] of 400 nM. Moreover, in assay [2], the change in vivo at 30 mg/kg was -25%. In the case of `CCCCCCCCCc1nnc(NC(=O)Nc2c(C(C)C)cccc2C(C)C)s1` [Example 21, N-[2,6-bis(1-methylethyl)phenyl]-N'-(5-nonyl-1,3,4-thiadiazol-2-yl)urea], the change in vivo at 30 mg/kg in assay [2] is -45%. Same read-out and setting: as for `CCCCCCCCCCCCCc1nnc(NC(=O)Nc2c(C(C)C)cccc2C(C)C)s1` [Example 22, N-[2,6-bis(1-methylethyl)phenyl]-N'-(5-tridecyl-1,3,4-thiadiazol-2-yl)urea], the figure is -8%.

Compound `CCCCCCCCCCCCc1nnc(NC(=O)Nc2c(C(C)C)cccc2C(C)C)s1` [Example 23, N-[2,6-bis(1-methylethyl)phenyl]-N'-(5-dodecyl-1,3,4-thiadiazol-2-yl)urea] returned a half-maximal inhibitory concentration (IC50) in assay [1] of 34 nM. Besides, in assay [2], the change in vivo at 30 mg/kg was -32%. In turn, `CC(C)c1cccc(C(C)C)c1NC(=O)Nc1nc(-c2ccccc2)ns1` [Example 24, N-[2,6-Bis(1-methylethyl)phenyl]-N'-(3-phenyl-1,2,4-thiadiazol-5-yl)urea] had an IC50 in assay [1] greater than 5000 nM. Turning to `CCCCCCCCCCCCCc1nnc(NC(=O)Nc2c(C(C)C)cccc2C(C)C)o1` [Example 25, N-[2,6-bis(1-methylethyl)phenyl]-N'-(5-tridecyl-1,3,4-oxadiazol-2-yl)urea], in assay [2], the change in vivo at 30 mg/kg was -62%. Consider `CCCCCCCCCCCCCc1nc(NC(=O)Nc2c(C(C)C)cccc2C(C)C)no1` [Example 26, N-[2,6-bis(1-methylethyl)phenyl]-N'-[5-tridecyl-1,2,4-oxadiazol-3-yl]urea], for which the half-inhibitory concentration (IC50) in assay [1] was 7 nM.

`CSc1nnc(NC(=O)Nc2c(C(C)C)cccc2C(C)C)[nH]1` [Example 27] gave an IC50 in assay [1] greater than 5000 nM. “N-[2,6-bis(1-methylethyl)phenyl]-N'-(2-dodecyl-1H-1,2,4-triazol-5-yl)urea [Example 10]” yielded an IC50 in assay [1] of 250 nM. Moreover, the “% Change (mg/dl)” value in assay [2] is reported as -36%.

The values above are taken from US5185358A, “3-heteroatom containing urea and thiourea ACAT inhibitors” (Warner-Lambert Co., priority 1991, dated 1993).
